Data reported in patent US20260193236A1 (Protego Biopharma, Inc., priority 2022, published 2026).

Tested on: IRE1-XBP1s (XBP1-RLuc splicing reporter in HEK293 T-REx cells)
Assay: IRE1-XBP1s activation assay (XBP1-RLuc splicing reporter, HEK293 T-REx cells, luminescence relative to thapsigargin)
Format: cell-based
Settings: 18 h, compound 10 μM, HEK293 T-REx XBP1-RLuc reporter cells, relative to thapsigargin (Tg) 500 nM, read-out: Activity (IRE1-XBP1s activation, luminescence as % signal relative to thapsigargin, % Tg)
Protocol: IRE1-XBP1s activation Assay: HEK293 T-REx cells stably expressing the XBP1-RLuc splicing reporter were treated with an IRE1-XBP1s activator provided herein (10 μM) in the presence or absence of the IRE1 active site inhibitor 4μ8C (32 μM) for 18 h. Luminescence was shown as the percentage signal relative to thapsigargin (Tg) (500 nM, 18 h).

Row | Structure (SMILES) | activation at 10 µM [%]
1 | CN(CCOc1ccc(C(F)(F)F)cn1)C(=O)Cn1cc(NC(=O)CCOc2ccnc(N)c2)cn1 [Compound 95] | < 30
2 | Cc1ccc(OCCN(C)C(=O)Cn2cc(NC(=O)CCNc3ccc(C)nc3F)cn2)cc1 [Compound 181] | < 30
3 | Cc1ccc(OCCC(=O)Nc2cnn(CC(=O)N(C)CCOc3ccc(C4(F)CC4)cc3)c2)c(F)c1 [Compound 89] | < 30
4 | Cc1ccc(OCCN(C)C(=O)Cn2cc(NC(=O)CCOc3ccnc(N)n3)cn2)cc1 [Compound 99] | > 50
5 | Cc1ccc(OCCN(C)C(=O)Cn2cc(NC(=O)COc3cc4ccccn4n3)cn2)cc1 [Compound 289] | > 50
6 | Cc1ccc(OCCN(C)C(=O)Cn2cc(NC(=O)COCc3cccnc3N)cn2)cc1 [Compound 84] | < 30
7 | Cc1ccc(OCCN(C)C(=O)Cn2cc(NC(=O)CCOc3ncccc3N)cn2)cc1 [Compound 114] | > 50
8 | Cc1ccc(OCCN(C)C(=O)Cn2cc(NC(=O)CCOc3c(F)cncc3Br)cn2)cc1 [Compound 97] | < 30
9 | Cc1ccc(OCCN(C)C(=O)Cn2cc(NC(=O)CCOc3ccnc(Br)c3)cn2)cc1 [Compound 98] | > 50
10 | Cc1ccc(OCCN(C)C(=O)Cn2cc(NC(=O)CCNc3ccc(O)nc3)cn2)cc1 [Compound 255] | < 30
11 | Cc1ccc(OCCN(C)C(=O)Cn2cc(NC(=O)CCNc3cc(F)ncc3F)cn2)cc1 [Compound 143] | < 30
12 | CCOc1cc(NCCC(=O)Nc2cnn(CC(=O)N(C)CCOc3ccc(C)cc3)c2)ccn1 [Compound 191] | < 30
13 | COc1ccc(NCCC(=O)Nc2cnn(CC(=O)N(C)CCOc3ccc(C)cc3)c2)c(C)n1 [Compound 197] | 30 to 50
14 | Cc1ccc(OCCN(C)C(=O)Cn2cc(NC(=O)CCNc3ccncc3Cl)cn2)cc1 [Compound 182] | > 50
15 | COc1ccc(OCCN(C)C(=O)Cn2cc(NC(=O)CCNc3cc(C)ncc3C)cn2)cc1 [Compound 168] | 30 to 50
16 | Cc1ccc(OCCC(=O)Nc2cnn(CC(=O)N(C)CCOc3ccc(F)c(Cl)c3)c2)c(F)c1 [Compound 72] | < 30
17 | Cc1ccc(OCCN(C)C(=O)Cn2cc(NC(=O)CCNc3ncc(F)cn3)cn2)cc1 [Compound 193] | 30 to 50
18 | Cc1ccc(OCCN(C)C(=O)Cn2cc(NC(=O)CCNc3cncnc3C(C)C)cn2)cc1 [Compound 257] | < 30
19 | CNc1ccnc(OCCC(=O)Nc2cnn(CC(=O)N(C)CCOc3ccc(C)cc3)c2)n1 [Compound 216] | < 30
20 | Cc1ccc(OCCN(C)C(=O)Cn2cc(NC(=O)CC(C)(C)Nc3nccc(F)n3)cn2)cc1 [Compound 218, 3-((4-fluoropyrimidin-2-yl)amino)-3-methyl-N-(1-(2-(methyl(2-(p-tolyloxy)ethyl)amino)-2-oxoethyl)-1H-pyrazol-4-yl)butanamide] | > 50
21 | Cc1ccc(OCCN(C)C(=O)Cn2cc(NC(=O)C(C)(C)CNc3ccc(F)nc3C)cn2)cc1 [Compound 221] | < 30

Row | Structure (SMILES) | activation at 10 µM [%]
22 | Cc1ccc(OCCN(C)C(=O)Cn2cc(NC(=O)CCNc3cncc(C)c3)cn2)cc1 [Compound 180] | 30 to 50
23 | Cc1ccc(OCCN(C)C(=O)Cn2cc(NC(=O)CCNc3cccc(C#N)n3)cn2)cc1 [Compound 132] | > 50
24 | Cc1ccc(OCCN(C)C(=O)Cn2cc(NC(=O)CCNc3cncc(N)n3)cn2)cc1 [Compound 122] | < 30
25 | Cc1ccc(OCCN(C)C(=O)Cn2cc(NC(=O)CCNc3cc(C)ncc3C)cn2)cc1 [Compound 173] | < 30
26 | Cc1ccc(OCCN(C)C(=O)Cn2cc(NC(=O)CCOc3c(C)ccnc3C)cn2)cc1 [Compound 14] | 30 to 50
27 | Cc1ccc(OCCN(C)C(=O)Cn2cc(NC(=O)CCNc3cncc(C(F)(F)F)n3)cn2)cc1 [Compound 185] | < 30
28 | Cc1ccc(OC[C@@H](C)N(C)C(=O)Cn2cc(NC(=O)CCNc3ccnc(O)n3)cn2)cc1 [Compound 266] | < 30
29 | Cc1ccc(OCCN(C)C(=O)Cn2cc(NC(=O)CCOc3c(C)cc(F)cc3C)cn2)cc1 [Compound 58] | 30 to 50
30 | Cc1ccc(OCCN(C)C(=O)Cn2cc(NC(=O)CCOc3ccncc3[N+](=O)[O-])cn2)cc1 [Compound 111] | < 30
31 | Cc1ccc(OCCN(C)C(=O)Cn2cc(NC(=O)CCNc3ccc(C)cn3)cn2)cc1 [Compound 126] | < 30
32 | CCc1ccc(OCCN(C)C(=O)Cn2cc(NC(=O)CCOc3ccccc3)cn2)cc1 [Compound 26] | > 50
33 | Cc1ccc(OCCC(=O)Nc2cnn(CC(=O)N(C)CCOc3ncn(C)n3)c2)c(F)c1 [Compound 90] | < 30
34 | CN(CCOc1cccnc1)C(=O)Cn1cc(NC(=O)CCOc2ccccc2F)cn1 [Compound 41] | < 30
35 | CCc1ccc(OCCN(C)C(=O)Cn2cc(NC(=O)CCOc3ccccc3F)cn2)cc1 [Compound 52] | 30 to 50
36 | Cc1ccc(OCCN(C)C(=O)Cn2cc(NC(=O)CCNc3ncc(C)cc3C)cn2)cc1 [Compound 195] | < 30
37 | Cc1ccc(OCCN(C)C(=O)Cn2cc(NC(=O)CCNc3ccc(Cl)cn3)cn2)cc1 [Compound 129] | < 30
38 | Cc1ccc(OCCN(C)C(=O)Cn2cc(NC(=O)CNC(=O)c3ccncc3)cn2)cc1 [Compound 259] | < 30
39 | Cc1ccc(OCCN(C)C(=O)Cn2cc(NC(=O)CCNc3ccnc(Cl)c3)cn2)cc1 [Compound 149] | > 50
40 | Cc1ccc(OCCN(C)C(=O)Cn2cc(NC(=O)CCNc3ccnc(F)c3Cl)cn2)cc1 [Compound 190] | < 30
41 | Cc1ccc(OCCN(C)C(=O)Cn2cc(NC(=O)CCNc3ccnc4nccn34)cn2)cc1 [Compound 227] | < 30
42 | Cc1ccc(OCCN(C)C(=O)Cn2cc(NC(=O)CCNc3nccnc3Cl)cn2)cc1 [Compound 147] | > 50

Row | Structure (SMILES) | activation at 10 µM [%]
43 | CC(C)c1cncc(F)c1OCCC(=O)Nc1cnn(CC(=O)N(C)CCOc2ccc(OC(F)(F)F)cn2)c1 [Compound 279] | > 50
44 | Cc1ccc(OCCN(C)C(=O)Cn2cc(NC(=O)CCOc3c(C(C)C)ccnc3C)cn2)cc1 [Compound 15] | > 50
45 | COc1cc(NS(=O)(=O)CC(=O)Nc2cnn(CC(=O)N(C)CCOc3ccc(C)cc3)c2)ccn1 [Compound 285, 2-(4-(2-(N-(2-methoxypyridin-4-yl)sulfamoyl)acetamido)-1H-pyrazol-1-yl)-N-methyl-N-(2-(p-tolyloxy)ethyl)acetamide] | < 30
46 | Cc1ccc(OCCN(C)C(=O)Cn2cc(NC(=O)CNCc3cccnc3N)cn2)cc1 [Compound 83] | < 30
47 | Cc1ccc(OCCN(C)C(=O)Cn2cc(NC(=O)CCOc3ccc(C)cc3F)cn2)cc1 [Compound 39] | 30 to 50
48 | COc1ncc(Cl)cc1NCCC(=O)Nc1cnn(CC(=O)N(C)CCOc2ccc(C)cc2)c1 [Compound 183] | < 30
49 | Cc1ccc(OCCN(C)C(=O)Cn2cc(NC(=O)CCNc3ncc(C)cn3)cn2)cc1 [Compound 93] | < 30
50 | Cc1ccc(OCCN(C)C(=O)Cn2cc(NC(=O)CCNc3nccc(F)n3)cn2)cc1 [Compound 139] | < 30
51 | Cc1ccc(OCCN(C)C(=O)Cn2cc(NC(=O)CCNc3ccnc(N)n3)cn2)cc1 [Compound 158] | < 30
52 | Cc1ccc(OCCN(C)C(=O)Cn2cc(NC(=O)CCNc3ccncc3F)cn2)cc1 [Compound 192] | > 50
53 | C=Cc1cncc(F)c1NCCC(=O)Nc1cnn(CC(=O)N(C)CCOc2ccc(C)cc2)c1 [Compound 251] | > 50
54 | Cc1ccc(OCCN(C)C(=O)Cn2cc(NC(=O)CCNc3ccnc(O)n3)cn2)cc1 [Compound 260, 3-((2-hydroxypyrimidin-4-yl)amino)-N-(1-(2-(methyl(2-(p-tolyloxy)ethyl)amino)-2-oxoethyl)-1H-pyrazol-4-yl)propanamide] | < 30
55 | Cc1ncccc1NCCC(=O)Nc1cnn(CC(=O)N(C)CCOc2ccc(C(F)(F)F)cc2)c1 [Compound 204] | < 30
56 | Cc1ccc(OCCN(C)C(=O)Cn2cc(NC(=O)CCNc3cnc(F)c(Cl)c3)cn2)cc1 [Compound 184] | > 50
57 | Cc1nc(F)ccc1NCCC(=O)Nc1cnn(CC(=O)N(C)CCOc2cnn(C)c2)c1 [Compound 238, 3-[(6-fluoro-2-methyl-3-pyridyl)amino]-N-[1-[2-[methyl-[2-(1-methylpyrazol-4-yl)oxyethyl]amino]-2-oxo-ethyl]pyrazol-4-yl]propanamide] | < 30
58 | COC(=O)Nc1cccc(OCCC(=O)Nc2cnn(CC(=O)N(C)CCOc3ccc(C)cc3)c2)n1 [Compound 261, methyl (6-(3-((1-(2-(methyl(2-(p-tolyloxy)ethyl)amino)-2-oxoethyl)-1H-pyrazol-4-yl)amino)-3-oxopropoxy)pyridin-2-yl)carbamate] | 30 to 50
59 | Cc1ccc(OCCN(C)C(=O)Cn2cc(NC(=O)CCOc3cccc(C)n3)cn2)cc1 [Compound 105] | > 50
60 | Cc1ccc(OC[C@H](C)N(C)C(=O)Cn2cc(NC(=O)CCOc3c(F)cccc3F)cn2)cc1 [Compound 81] | > 50
61 | C#CCCC1(CCC(=O)Nc2ncccc2OCCC(=O)Nc2cnn(CC(=O)N(C)CCOc3ccc(C)cc3)c2)N=N1 [Compound 296, 3-(3-but-3-ynyldiazirin-3-yl)-N-[3-[3-[[1-[2-[methyl-[2-(4-methylphenoxy)ethyl]amino]-2-oxo-ethyl]pyrazol-4-yl]amino]-3-oxo-propoxy]-2-pyridyl]propanamide] | < 30
62 | Cc1ccc(OCCN(C)C(=O)Cn2cc(NC(=O)CCOc3cccc(N(C)C)c3)cn2)cc1 [Compound 38] | > 50
63 | CC(C)c1cncc(F)c1NCCC(=O)Nc1cnn(CC(=O)N(C)CCOc2ccc(C(F)(F)F)cn2)c1 [Compound 269] | > 50
